Results as given in ChEMBL document CHEMBL3217717, “Synthesis and antiproliferative activity of novel erythromycin derivatives” (Medchemcomm, 2010).

Key:
[1] = Cell cycle arrest in human HT1080 cells assessed as accumulation at G2/M phase at 0.5 times IC50 after 48 hrs by propidium iodide staining-based flow cytometric analysis (reference value: 31.39%); format: functional; details: HT-1080
[2] = Cell cycle arrest in human HT1080 cells assessed as accumulation at G0/G1 phase at IC50 after 48 hrs by propidium iodide staining-based flow cytometric analysis (reference value: 41.60%); format: functional; details: HT-1080
KB = assay: Cytotoxicity against human KB cells assessed as growth inhibition after 48 hrs by MTT assay; format: functional, cell-based
[3] = Cell cycle arrest in human HT1080 cells assessed as accumulation at G2/M phase at 2 times IC50 after 48 hrs by propidium iodide staining-based flow cytometric analysis (reference value: 31.39%); format: functional; details: HT-1080
[4] = Cell cycle arrest in human HT1080 cells assessed as accumulation at subG1 phase at IC50 after 24 hrs by propidium iodide staining-based flow cytometric analysis (reference value: 0.82%); format: functional; details: HT-1080
[5] = Cell cycle arrest in human HT1080 cells assessed as accumulation at S phase at 2 times IC50 after 24 hrs by propidium iodide staining-based flow cytometric analysis (reference value: 21.01%); format: functional; details: HT-1080
[6] = Cell cycle arrest in human HT1080 cells assessed as accumulation at G0/G1 phase at 2 times IC50 after 24 hrs by propidium iodide staining-based flow cytometric analysis (reference value: 49.18%); format: functional; details: HT-1080
[7] = Cell cycle arrest in human HT1080 cells assessed as accumulation at S phase at IC50 after 48 hrs by propidium iodide staining-based flow cytometric analysis (reference value: 15.11%); format: functional; details: HT-1080
[8] = Cell cycle arrest in human HT1080 cells assessed as accumulation at G0/G1 phase at 0.5 times IC50 after 24 hrs by propidium iodide staining-based flow cytometric analysis (reference value: 49.18%); format: functional; details: HT-1080
[9] = Cell cycle arrest in human HT1080 cells assessed as accumulation at G0/G1 phase after 24 to 48 hrs by propidium iodide staining-based flow cytometric analysis; format: functional; details: HT-1080
[10] = Cell cycle arrest in human HT1080 cells assessed as accumulation at G2/M phase at 0.5 times IC50 after 24 hrs by propidium iodide staining-based flow cytometric analysis (reference value: 23.71%); format: functional; details: HT-1080
[11] = Cell cycle arrest in human HT1080 cells assessed as accumulation at G2/M phase at IC50 after 24 hrs by propidium iodide staining-based flow cytometric analysis (reference value: 23.71%); format: functional; details: HT-1080
[12] = Cell cycle arrest in human HT1080 cells assessed as accumulation at G0/G1 phase at 2 times IC50 after 48 hrs by propidium iodide staining-based flow cytometric analysis (reference value: 41.60%); format: functional; details: HT-1080
[13] = Cell cycle arrest in human HT1080 cells assessed as accumulation at S phase at IC50 after 24 hrs by propidium iodide staining-based flow cytometric analysis (reference value: 21.01%); format: functional; details: HT-1080
[14] = Cell cycle arrest in human HT1080 cells assessed as accumulation at subG1 phase at 2 times IC50 after 48 hrs by propidium iodide staining-based flow cytometric analysis (reference value: 1.86%); format: functional; details: HT-1080
[15] = Cell cycle arrest in human HT1080 cells assessed as accumulation at G2/M phase at IC50 after 48 hrs by propidium iodide staining-based flow cytometric analysis (reference value: 31.39%); format: functional; details: HT-1080
[16] = Cell cycle arrest in human HT1080 cells assessed as accumulation at S phase at 2 times IC50 after 48 hrs by propidium iodide staining-based flow cytometric analysis (reference value: 15.11%); format: functional; details: HT-1080
[17] = Cytotoxicity against human HT1080 cells assessed as growth inhibition after 48 hrs by MTT assay; format: functional, cell-based; details: HT-1080, 48 h
[18] = Cell cycle arrest in human HT1080 cells assessed as accumulation at G0/G1 phase at 0.5 times IC50 after 48 hrs by propidium iodide staining-based flow cytometric analysis (reference value: 41.60%); format: functional; details: HT-1080
[19] = Cell cycle arrest in human HT1080 cells assessed as accumulation at subG1 phase at 0.5 times IC50 after 24 hrs by propidium iodide staining-based flow cytometric analysis (reference value: 0.82%); format: functional; details: HT-1080
[20] = Cell cycle arrest in human HT1080 cells assessed as accumulation at S phase at 0.5 times IC50 after 24 hrs by propidium iodide staining-based flow cytometric analysis (reference value: 21.01%); format: functional; details: HT-1080
[21] = Cell cycle arrest in human HT1080 cells assessed as accumulation at S phase at 0.5 times IC50 after 48 hrs by propidium iodide staining-based flow cytometric analysis (reference value: 15.11%); format: functional; details: HT-1080
[22] = Cell cycle arrest in human HT1080 cells assessed as accumulation at subG1 phase at 2 times IC50 after 24 hrs by propidium iodide staining-based flow cytometric analysis (reference value: 0.82%); format: functional; details: HT-1080
[23] = Cell cycle arrest in human HT1080 cells assessed as accumulation at G0/G1 phase at 0.5 to 2 times IC50 by propidium iodide staining-based flow cytometric analysis; format: functional; details: HT-1080, TDE = time-dependent effect
[24] = Cell cycle arrest in human HT1080 cells assessed as accumulation at subG1 phase at IC50 after 48 hrs by propidium iodide staining-based flow cytometric analysis (reference value: 1.86%); format: functional; details: HT-1080
[25] = Cell cycle arrest in human HT1080 cells assessed as accumulation at G0/G1 phase at IC50 after 24 hrs by propidium iodide staining-based flow cytometric analysis (reference value: 49.18%); format: functional; details: HT-1080
[26] = Cytotoxicity against human SGC7901 cells assessed as growth inhibition after 48 hrs by MTT assay; format: functional, cell-based; details: SGC-7901, 48 h
[27] = Cell cycle arrest in human HT1080 cells assessed as accumulation at subG1 phase at 0.5 times IC50 after 48 hrs by propidium iodide staining-based flow cytometric analysis (reference value: 1.86%); format: functional; details: HT-1080
[28] = Cell cycle arrest in human HT1080 cells assessed as accumulation at G2/M phase at 2 times IC50 after 24 hrs by propidium iodide staining-based flow cytometric analysis (reference value: 23.71%); format: functional; details: HT-1080
[29] = Cell cycle arrest in human HT1080 cells assessed as accumulation at G0/G1 phase after 24 hrs by propidium iodide staining-based flow cytometric analysis; format: functional; details: HT-1080

Compound: CC[C@H]1OC(=O)[C@H](C)[C@@H](O[C@H]2C[C@@](C)(OC)[C@@H](O)[C@H](C)O2)[C@H](C)[C@@H](O[C@@H]2O[C@H](C)C[C@H](N(C)CCN(C)[C@H]3C[C@@H](C)O[C@@H](O[C@@H]4[C@@H](C)[C@H](O[C@H]5C[C@@](C)(OC)[C@@H](O)[C@H](C)O5)[C@@H](C)C(=O)O[C@H](CC)[C@@](C)(O)[C@H](O)[C@@H](C)/C(=N\O)[C@H](C)C[C@@]4(C)OC)[C@@H]3O)[C@H]2O)[C@](C)(OC)C[C@@H](C)/C(=N/O)[C@H](C)[C@@H](O)[C@]1(C)O
- Activity [1]: 15.3%
- Activity [2]: 71.9%
- IC50 (KB): 4.4 µM
- Activity [3]: 10.1%
- Activity [4]: 0.77%
- Activity [5]: 10.8%
- Activity [6]: 75.1%
- Activity [7]: 12.6%
- Activity [8]: 62%
- Activity [9]: Dose-dependent effect
- Activity [10]: 17.4%
- Activity [11]: 18.5%
- Activity [12]: 74.5%
- Activity [13]: 15.9%
- Activity [14]: 2.47%
- Activity [15]: 12.8%
- Activity [16]: 11.5%
- IC50 [17]: 5.3 µM
- Activity [18]: 67.6%
- Activity [19]: 0.6%
- Activity [20]: 18.1%
- Activity [21]: 13.7%
- Activity [22]: 0.85%
- Activity [23]: tde
- Activity [24]: 0.77%
- Activity [25]: 62.7%
- IC50 [26]: 7.8 µM
- Activity [27]: 0.75%
- Activity [28]: 11.9%

Compound: CC[C@H]1OC(=O)[C@H](C)[C@@H](O[C@H]2C[C@@](C)(OC)[C@@H](O)[C@H](C)O2)[C@H](C)[C@@H](O[C@@H]2O[C@H](C)C[C@H](N(C)CCN(C)[C@H]3C[C@@H](C)O[C@@H](O[C@@H]4[C@@H](C)[C@H](O[C@H]5C[C@@](C)(OC)[C@@H](O)[C@H](C)O5)[C@@H](C)C(=O)O[C@H](CC)[C@@](C)(O)[C@H](O)[C@@H](C)/C(=N\OCc5ccccc5)[C@H](C)C[C@@]4(C)OC)[C@@H]3O)[C@H]2O)[C@](C)(OC)C[C@@H](C)/C(=N/OCc2ccccc2)[C@H](C)[C@@H](O)[C@]1(C)O
- IC50 (KB): 7.6 µM
- IC50 [17]: 9.5 µM
- IC50 [26]: 26.5 µM

Compound: CC[C@H]1OC(=O)[C@H](C)[C@@H](O[C@H]2C[C@@](C)(OC)[C@@H](O)[C@H](C)O2)[C@H](C)[C@@H](O[C@@H]2O[C@H](C)C[C@H](N(C)CCN(C)[C@H]3C[C@@H](C)O[C@@H](O[C@@H]4[C@@H](C)[C@H](O[C@H]5C[C@@](C)(OC)[C@@H](O)[C@H](C)O5)[C@@H](C)C(=O)O[C@H](CC)[C@@](C)(O)[C@H](O)[C@@H](C)C(=O)[C@H](C)C[C@@]4(C)OC)[C@@H]3O)[C@H]2O)[C@](C)(OC)C[C@@H](C)C(=O)[C@H](C)[C@@H](O)[C@]1(C)O
- IC50 (KB): 17.7 µM
- IC50 [17]: 8.1 µM
- IC50 [26]: 20 µM

Compound: CC[C@H]1OC(=O)[C@H](C)[C@@H](O)[C@H](C)[C@@H](O[C@@H]2O[C@H](C)C[C@H](N(C)CCN(C)[C@H]3C[C@@H](C)O[C@@H](O[C@@H]4[C@@H](C)[C@H](O)[C@@H](C)C(=O)O[C@H](CC)[C@@](C)(O)[C@H](O)[C@@H](C)[C@@H](O)[C@H](C)C[C@@]4(C)O)[C@@H]3O)[C@H]2O)[C@](C)(O)C[C@@H](C)[C@H](O)[C@H](C)[C@@H](O)[C@]1(C)O
- IC50 (KB): > 100 µM
- IC50 [17]: > 100 µM
- IC50 [26]: > 100 µM

Compound: CC[C@H]1OC(=O)[C@H](C)[C@@H](O[C@H]2C[C@@](C)(OC)[C@@H](O)[C@H](C)O2)[C@H](C)[C@@H](O[C@@H]2O[C@H](C)C[C@H](N(C)CCN(C)[C@H]3C[C@@H](C)O[C@@H](O[C@@H]4[C@@H](C)[C@H](O[C@H]5C[C@@](C)(OC)[C@@H](O)[C@H](C)O5)[C@@H](C)C(=O)O[C@H](CC)[C@@](C)(O)[C@H](O)[C@@H](C)C(=O)[C@H](C)C[C@@]4(C)O)[C@@H]3O)[C@H]2O)[C@](C)(O)C[C@@H](C)C(=O)[C@H](C)[C@@H](O)[C@]1(C)O
- IC50 (KB): 37.3 µM
- IC50 [17]: > 100 µM
- IC50 [26]: 18.3 µM

Compound: CC[C@H]1OC(=O)[C@H](C)[C@@H](O)[C@H](C)[C@@H](O[C@@H]2O[C@H](C)C[C@H](N(C)CCN(C)[C@H]3C[C@@H](C)O[C@@H](O[C@@H]4[C@@H](C)[C@H](O[C@H]5C[C@@](C)(OC)[C@@H](O)[C@H](C)O5)[C@@H](C)C(=O)O[C@H](CC)[C@@](C)(O)[C@H](O)[C@@H](C)/C(=N\O)[C@H](C)C[C@@]4(C)OC)[C@@H]3O)[C@H]2O)[C@](C)(OC)C[C@@H](C)/C(=N/O)[C@H](C)[C@@H](O)[C@]1(C)O
- IC50 (KB): 38.2 µM
- IC50 [17]: 42.8 µM
- IC50 [26]: 12.7 µM

Compound: CC[C@H]1OC(=O)[C@H](C)[C@@H](O[C@H]2C[C@@](C)(OC)[C@@H](O)[C@H](C)O2)[C@H](C)[C@@H](O[C@@H]2O[C@H](C)C[C@H](N(C)CCN(C)[C@H]3C[C@@H](C)O[C@@H](O[C@@H]4[C@@H](C)[C@H](O[C@H]5C[C@@](C)(OC)[C@@H](O)[C@H](C)O5)[C@@H](C)C(=O)O[C@H](CC)[C@@](C)(O)[C@H](O)[C@@H](C)/C(=N\O)[C@H](C)C[C@@]4(C)O)[C@@H]3O)[C@H]2O)[C@](C)(O)C[C@@H](C)/C(=N/O)[C@H](C)[C@@H](O)[C@]1(C)O
- Activity [1]: 10.1%
- Activity [2]: 77.3%
- IC50 (KB): 6.2 µM
- Activity [3]: 17.9%
- Activity [4]: 2.01%
- Activity [29]: Dose-dependent effect
- Activity [5]: 11.1%
- Activity [6]: 66.6%
- Activity [7]: 9.35%
- Activity [8]: 66%
- Activity [10]: 14.4%
- Activity [11]: 11.5%
- Activity [12]: 48.7%
- Activity [13]: 13.9%
- Activity [14]: 15.7%
- Activity [15]: 10.8%
- Activity [16]: 14.8%
- IC50 [17]: 8.6 µM
- Activity [18]: 80%
- Activity [19]: 1.41%
- Activity [20]: 16.5%
- Activity [21]: 6.94%
- Activity [22]: 8.14%
- Activity [24]: 1.34%
- Activity [25]: 71.2%
- IC50 [26]: 21.7 µM
- Activity [27]: 1.34%
- Activity [28]: 12.5%
